For the test, the target named is cytochrome P450 3A4 (Homo sapiens, UniProt P08684). Nature of the test: Inhibitory activity on cytochrome P450 3A4. It is filed as in vitro ADME. The note with it: no significant inhibition.
Sequence of cytochrome P450 3A4 (P08684 whole entry): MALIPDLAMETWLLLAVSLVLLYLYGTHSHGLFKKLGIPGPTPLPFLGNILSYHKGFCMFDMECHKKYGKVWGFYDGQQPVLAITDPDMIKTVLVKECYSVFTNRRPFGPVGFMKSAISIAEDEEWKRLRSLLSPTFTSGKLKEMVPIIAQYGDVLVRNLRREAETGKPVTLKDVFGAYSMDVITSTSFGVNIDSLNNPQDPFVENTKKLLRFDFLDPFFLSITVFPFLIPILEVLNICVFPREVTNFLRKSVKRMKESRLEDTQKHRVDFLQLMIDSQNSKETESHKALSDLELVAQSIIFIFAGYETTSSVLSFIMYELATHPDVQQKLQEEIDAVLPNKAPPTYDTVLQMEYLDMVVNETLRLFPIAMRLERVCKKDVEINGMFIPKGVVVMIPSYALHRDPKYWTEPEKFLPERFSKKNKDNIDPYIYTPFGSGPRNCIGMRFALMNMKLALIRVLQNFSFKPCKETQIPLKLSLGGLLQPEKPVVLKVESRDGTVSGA
`Cc1cc(Nc2ncc(Cl)c(Nc3cn(C)nc3S(=O)(=O)CC(C)C)n2)c(OC2CC2)cc1C1CCN(C)CC1` [Final product 57]: the IC50 was over 10 µM.

`COCC1CC(c2cc(OC3CC3)c(Nc3ncc(Cl)c(Nc4cn(C)nc4S(=O)(=O)C(C)C)n3)cc2C)CCN1C` (stereo not shown) [Final product 77] showed an IC50 of over 10 µM.

Consider `COCCN1CCC(c2cc(OC3CC3)c(Nc3ncc(Cl)c(Nc4cn(C)nc4S(=O)(=O)C(C)C)n3)cc2C)CC1` [Final product 82], for which the IC50 is over 10 µM.

For the compound `Cc1cc(Nc2ncc(Cl)c(Nc3cn(C)nc3S(=O)(=O)C(C)C)n2)c(OC2CC2)cc1C1CCC(NS(C)(=O)=O)CC1` (stereo not shown) [Final product 205, N-(4-(4-(5-chloro-4-(3-(isopropylsulfonyl)-1-methyl-1H-pyrazol-4-amine)pyrimidin-2-amine)-5-cyclopropoxy-2-methylphenyl)cyclohexyl)methanesulfonamide], the concentration for half-maximal inhibition (IC50) is over 10 µM.

Source of the values: US10023593B2, “ALK kinase inhibitor, and preparation method and uses thereof” (BEIJING PEARL BIOTECHNOLOGY LIMITED LIABILITY COMPANY, priority 2014, dated 2018).
